Results as given in the supplement of paper PMC13207355.

Legend:
Conditions in all cases: exposure time: 72 h
[1] = tested on: E57 (patient-derived glioblastoma stem cells of mesenchymal subtype); test: phenotypic distance (Euclidean, principal components) from DMSO controls (arbitrary units); higher = stronger morphological change
[2] = tested on: E28 (patient-derived glioblastoma stem cells of classical subtype); test: as above
[3] = tested on: E34 (patient-derived glioblastoma stem cells of proneural subtype); test: as above
[4] = tested on: E13 (patient-derived glioblastoma stem cells of classical subtype); test: as above
[5] = tested on: FT3469 (normal neural stem cell line); test: as above
[6] = tested on: E21 (patient-derived glioblastoma stem cells of mesenchymal subtype); test: as above
[7] = tested on: E31 (patient-derived glioblastoma stem cells of proneural subtype); test: as above
[8] = tested on: E57; test: surviving fraction (nuclei count normalised to DMSO); higher = more cells surviving (less toxic)
[9] = tested on: E28; test: as above
[10] = tested on: E34; test: as above
[11] = tested on: E13; test: as above
[12] = tested on: FT3469; test: as above
[13] = tested on: E21; test: as above
[14] = tested on: E31; test: as above
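Wherever phenotypic distance (Euclidean, principal components) from DMSO controls is given: cell Painting imaging in 384-well plates, CellProfiler features reduced to at least 20 principal components, Euclidean distance versus same-plate DMSO vehicle wells (0.1% v/v), median over six images per well.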
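Wherever surviving fraction (nuclei count normalised to DMSO) is given: nuclei counted by high-content imaging of Hoechst-stained cells in laminin-coated 384-well plates, relative to 0.1% DMSO vehicle wells, with staurosporine as cell-death control.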

Compound: O=C1CC[C@@H](C(=O)N2CSC[C@H]2C(=O)O)N1 [Pidotimod]
- phenotypic distance ([1]; 4.1 nM): 0.799
- phenotypic distance ([1]; 12.3 nM): 1.03
- phenotypic distance ([1]; 37 nM): 0.543
- phenotypic distance ([1]; 111.1 nM): 0.877
- phenotypic distance ([1]; 333.3 nM): 0.527
- phenotypic distance ([1]; 1000 nM): 0.924
- phenotypic distance ([1]; 3000 nM): 0.651
- phenotypic distance ([2]; 4.1 nM): 0.887
- phenotypic distance ([2]; 12.3 nM): 1.4
- phenotypic distance ([2]; 37 nM): 0.401
- phenotypic distance ([2]; 111.1 nM): 0.59
- phenotypic distance ([2]; 333.3 nM): 0.551
- phenotypic distance ([2]; 1000 nM): 0.647
- phenotypic distance ([2]; 3000 nM): 0.608
- phenotypic distance ([3]; 4.1 nM): 0.643
- phenotypic distance ([3]; 12.3 nM): 0.613
- phenotypic distance ([3]; 37 nM): 0.723
- phenotypic distance ([3]; 111.1 nM): 0.721
- phenotypic distance ([3]; 333.3 nM): 0.963
- phenotypic distance ([3]; 1000 nM): 0.89
- phenotypic distance ([3]; 3000 nM): 0.949
- phenotypic distance ([4]; 4.1 nM): 0.802
- phenotypic distance ([4]; 12.3 nM): 0.46
- phenotypic distance ([4]; 37 nM): 0.672
- phenotypic distance ([4]; 111.1 nM): 0.456
- phenotypic distance ([4]; 333.3 nM): 3.33
- phenotypic distance ([4]; 1000 nM): 0.449
- phenotypic distance ([4]; 3000 nM): 0.493
- phenotypic distance ([5]; 4.1 nM): 0.84
- phenotypic distance ([5]; 12.3 nM): 0.912
- phenotypic distance ([5]; 37 nM): 0.359
- phenotypic distance ([5]; 111.1 nM): 0.641
- phenotypic distance ([5]; 333.3 nM): 0.526
- phenotypic distance ([5]; 1000 nM): 0.625
- phenotypic distance ([5]; 3000 nM): 0.629
- phenotypic distance ([6]; 4.1 nM): 0.591
- phenotypic distance ([6]; 12.3 nM): 0.496
- phenotypic distance ([6]; 37 nM): 0.601
- phenotypic distance ([6]; 111.1 nM): 0.694
- phenotypic distance ([6]; 333.3 nM): 0.815
- phenotypic distance ([6]; 1000 nM): 0.785
- phenotypic distance ([6]; 3000 nM): 0.805
- phenotypic distance ([7]; 4.1 nM): 0.386
- phenotypic distance ([7]; 12.3 nM): 0.576
- phenotypic distance ([7]; 37 nM): 0.777
- phenotypic distance ([7]; 111.1 nM): 0.985
- phenotypic distance ([7]; 333.3 nM): 0.492
- phenotypic distance ([7]; 1000 nM): 0.921
- phenotypic distance ([7]; 3000 nM): 0.594
- surviving fraction ([8]; 4.1 nM): 1.07
- surviving fraction ([8]; 12.3 nM): 0.938
- surviving fraction ([8]; 37 nM): 1.02
- surviving fraction ([8]; 111.1 nM): 1.11
- surviving fraction ([8]; 333.3 nM): 0.978
- surviving fraction ([8]; 1000 nM): 1
- surviving fraction ([8]; 3000 nM): 1.03
- surviving fraction ([9]; 4.1 nM): 1.2
- surviving fraction ([9]; 12.3 nM): 1.02
- surviving fraction ([9]; 37 nM): 0.964
- surviving fraction ([9]; 111.1 nM): 1.11
- surviving fraction ([9]; 333.3 nM): 1.04
- surviving fraction ([9]; 1000 nM): 1.16
- surviving fraction ([9]; 3000 nM): 0.954
- surviving fraction ([10]; 4.1 nM): 0.98
- surviving fraction ([10]; 12.3 nM): 0.951
- surviving fraction ([10]; 37 nM): 0.786
- surviving fraction ([10]; 111.1 nM): 1.09
- surviving fraction ([10]; 333.3 nM): 0.996
- surviving fraction ([10]; 1000 nM): 1.04
- surviving fraction ([10]; 3000 nM): 1.04
- surviving fraction ([11]; 4.1 nM): 0.925
- surviving fraction ([11]; 12.3 nM): 1.01
- surviving fraction ([11]; 37 nM): 0.97
- surviving fraction ([11]; 111.1 nM): 1
- surviving fraction ([11]; 333.3 nM): 1.06
- surviving fraction ([11]; 1000 nM): 1.01
- surviving fraction ([11]; 3000 nM): 0.913
- surviving fraction ([12]; 4.1 nM): 0.972
- surviving fraction ([12]; 12.3 nM): 1.13
- surviving fraction ([12]; 37 nM): 0.987
- surviving fraction ([12]; 111.1 nM): 1.06
- surviving fraction ([12]; 333.3 nM): 1.01
- surviving fraction ([12]; 1000 nM): 1.01
- surviving fraction ([12]; 3000 nM): 0.933
- surviving fraction ([13]; 4.1 nM): 0.96
- surviving fraction ([13]; 12.3 nM): 1
- surviving fraction ([13]; 37 nM): 0.984
- surviving fraction ([13]; 111.1 nM): 1.08
- surviving fraction ([13]; 333.3 nM): 0.991
- surviving fraction ([13]; 1000 nM): 0.96
- surviving fraction ([13]; 3000 nM): 0.947
- surviving fraction ([14]; 4.1 nM): 1.08
- surviving fraction ([14]; 12.3 nM): 1.02
- surviving fraction ([14]; 37 nM): 1.01
- surviving fraction ([14]; 111.1 nM): 1.11
- surviving fraction ([14]; 333.3 nM): 0.994
- surviving fraction ([14]; 1000 nM): 1.17
- surviving fraction ([14]; 3000 nM): 0.845

Compound: COc1cc(/C=C/C(=O)N2CCC=CC2=O)cc(OC)c1OC [Piperlongumine]
- phenotypic distance ([1]; 4.1 nM): 1.56
- phenotypic distance ([1]; 12.3 nM): 0.849
- phenotypic distance ([1]; 37 nM): 0.56
- phenotypic distance ([1]; 111.1 nM): 0.314
- phenotypic distance ([1]; 333.3 nM): 0.518
- phenotypic distance ([1]; 1000 nM): 1.93
- phenotypic distance ([1]; 3000 nM): 6.93
- phenotypic distance ([2]; 4.1 nM): 0.727
- phenotypic distance ([2]; 12.3 nM): 1.04
- phenotypic distance ([2]; 37 nM): 0.697
- phenotypic distance ([2]; 111.1 nM): 0.848
- phenotypic distance ([2]; 333.3 nM): 0.74
- phenotypic distance ([2]; 1000 nM): 2.27
- phenotypic distance ([2]; 3000 nM): 5.12
- phenotypic distance ([3]; 4.1 nM): 1.26
- phenotypic distance ([3]; 12.3 nM): 0.821
- phenotypic distance ([3]; 37 nM): 1.16
- phenotypic distance ([3]; 111.1 nM): 0.677
- phenotypic distance ([3]; 333.3 nM): 0.524
- phenotypic distance ([3]; 1000 nM): 0.889
- phenotypic distance ([3]; 3000 nM): 1.82
- phenotypic distance ([4]; 4.1 nM): 0.433
- phenotypic distance ([4]; 12.3 nM): 0.675
- phenotypic distance ([4]; 37 nM): 0.516
- phenotypic distance ([4]; 111.1 nM): 2.59
- phenotypic distance ([4]; 333.3 nM): 0.883
- phenotypic distance ([4]; 1000 nM): 0.903
- phenotypic distance ([4]; 3000 nM): 1.87
- phenotypic distance ([5]; 4.1 nM): 0.686
- phenotypic distance ([5]; 12.3 nM): 0.732
- phenotypic distance ([5]; 37 nM): 0.828
- phenotypic distance ([5]; 111.1 nM): 0.586
- phenotypic distance ([5]; 333.3 nM): 1.07
- phenotypic distance ([5]; 1000 nM): 1.12
- phenotypic distance ([5]; 3000 nM): 3.88
- phenotypic distance ([6]; 4.1 nM): 1.09
- phenotypic distance ([6]; 12.3 nM): 0.626
- phenotypic distance ([6]; 37 nM): 0.701
- phenotypic distance ([6]; 111.1 nM): 0.313
- phenotypic distance ([6]; 333.3 nM): 0.682
- phenotypic distance ([6]; 1000 nM): 3.07
- phenotypic distance ([6]; 3000 nM): 9.28
- phenotypic distance ([7]; 4.1 nM): 1.19
- phenotypic distance ([7]; 12.3 nM): 0.591
- phenotypic distance ([7]; 37 nM): 0.723
- phenotypic distance ([7]; 111.1 nM): 0.471
- phenotypic distance ([7]; 333.3 nM): 1.14
- phenotypic distance ([7]; 1000 nM): 1.51
- phenotypic distance ([7]; 3000 nM): 10.8
- surviving fraction ([8]; 4.1 nM): 1.02
- surviving fraction ([8]; 12.3 nM): 0.96
- surviving fraction ([8]; 37 nM): 1.03
- surviving fraction ([8]; 111.1 nM): 1.03
- surviving fraction ([8]; 333.3 nM): 1.06
- surviving fraction ([8]; 1000 nM): 1
- surviving fraction ([8]; 3000 nM): 0.285
- surviving fraction ([9]; 4.1 nM): 1.02
- surviving fraction ([9]; 12.3 nM): 1.1
- surviving fraction ([9]; 37 nM): 1.13
- surviving fraction ([9]; 111.1 nM): 0.988
- surviving fraction ([9]; 333.3 nM): 1.03
- surviving fraction ([9]; 1000 nM): 0.538
- surviving fraction ([9]; 3000 nM): 0.256
- surviving fraction ([10]; 4.1 nM): 0.873
- surviving fraction ([10]; 12.3 nM): 0.984
- surviving fraction ([10]; 37 nM): 1.11
- surviving fraction ([10]; 111.1 nM): 1.04
- surviving fraction ([10]; 333.3 nM): 1.06
- surviving fraction ([10]; 1000 nM): 0.863
- surviving fraction ([10]; 3000 nM): 0.559
- surviving fraction ([11]; 4.1 nM): 0.958
- surviving fraction ([11]; 12.3 nM): 0.883
- surviving fraction ([11]; 37 nM): 1.05
- surviving fraction ([11]; 111.1 nM): 0.818
- surviving fraction ([11]; 333.3 nM): 0.823
- surviving fraction ([11]; 1000 nM): 0.88
- surviving fraction ([11]; 3000 nM): 0.767
- surviving fraction ([12]; 4.1 nM): 1.05
- surviving fraction ([12]; 12.3 nM): 0.946
- surviving fraction ([12]; 37 nM): 0.901
- surviving fraction ([12]; 111.1 nM): 0.983
- surviving fraction ([12]; 333.3 nM): 0.881
- surviving fraction ([12]; 1000 nM): 0.866
- surviving fraction ([12]; 3000 nM): 0.7
- surviving fraction ([13]; 4.1 nM): 1.01
- surviving fraction ([13]; 12.3 nM): 0.979
- surviving fraction ([13]; 37 nM): 0.997
- surviving fraction ([13]; 111.1 nM): 0.997
- surviving fraction ([13]; 333.3 nM): 0.908
- surviving fraction ([13]; 1000 nM): 0.609
- surviving fraction ([13]; 3000 nM): 0.104
- surviving fraction ([14]; 4.1 nM): 0.957
- surviving fraction ([14]; 12.3 nM): 1.09
- surviving fraction ([14]; 37 nM): 1.19
- surviving fraction ([14]; 111.1 nM): 1.12
- surviving fraction ([14]; 333.3 nM): 0.938
- surviving fraction ([14]; 1000 nM): 0.684
- surviving fraction ([14]; 3000 nM): 0.00892
